The values that follow come from patent US20130237609A1, “CELLULOSE DERIVATIVES FOR ENHANCING BIOAVAILABILITY OF FLAVONOIDS” (priority 2011, published 2013).

Data set [1] in a line: Contact angle of water on spin-coated films. Type of data set: physicochemical. Conditions: Cur/polymer weight ratio, PVP samples: initial value.
Data set [2] in a line: Curcumin stability in pH 7.4 buffer, HPLC after EtOH dilution. Conditions: 24 h, room temperature, EtOH dilution before measurement. Type of data set: physicochemical. Here is the method: […]. Samples were incubated at room temperature for indicated times. After incubation, the reaction mixtures were diluted by 1 mL of ethanol and the UV-Vis absorption of the diluted solution was measured; then the diluted solution was filtered through a 1 μm PVDF membrane filter, and the filtrate was analyzed by HP LC. HPLC was performed with an Agilent 1200 series liquid chromatograph equipped with a 1200 quaternary pump, a variable wavelength UV/Vis detector and an Eclipse XDB-C18 column (150×4.6 mm, 5 μm particle size) using the mixture of 40% THF, 60% water and 1% acetic acid (pH 3.0) as mobile phase.
(Wang 1997). Such chemical degradation is likely the result of retro-aldol reactions. (Priyadarsini 2009). […] This experiment differs from the literature report in that the inventors use ethanol to dilute the incubated aqueous curcumin solution just prior to measurement, to make sure that any crystallized curcumin is re-dissolved for detection. […]

The conditions of data set [3]: formulated as nanocrystals, solid dispersion in HPMCAS, nanoemulsion (Onoue 2010); cited from earlier work.
The conditions of data set [4]: with piperine as metabolic inhibitor, in humans; cited from earlier work.
For data set [5] the following is noted: pH 7.4 buffer; cited from earlier work.
Data set [6] is described as follows: Curcumin stability in buffer, UV-Vis after EtOH dilution. Type of data set: physicochemical.
A short description of data set [7]: Curcumin release profile, pH 1.2 buffer. Conditions: polymer label = amorphous blend of curcumin with that polymer. The data set is classed as physicochemical.
Data set [8] can be described thus: Curcumin stability in buffer (degradation plus crystallization), UV-Vis, no EtOH added. Conditions: after 5 h, no EtOH dilution.
For data set [9] the following is noted: cited from earlier work.
Data set [10] is described as follows: Curcumin release profile, pH 6.8 buffer. Type of data set: physicochemical. Conditions: pH 6.8, UV-Vis.

≈ marks a conversion by molar mass, not a printed value. Where two headings read alike, the source gives them in different places.

On to `COc1cc(/C=C/C(=O)CC(=O)/C=C/c2ccc(O)c(OC)c2)ccc1O` [Curcumin, 1,7-bis(4-hydroxy-3-methoxyphenyl)-1,6-heptadiene-3,5-dione], for which the “contact angle of water on film” value in [1] was determined as 102 °. The “curcumin degraded (HPLC, curcumin peak RT 6.0 min)” value in data set [2] is on record as 36%. For the same compound, the “improvement of oral bioavailability of curcumin” value in data set [3] is given as 9-16 fold. In data set [4], the “improvement of curcumin oral bioavailability” value is “up to 20 fold”. Moreover, in data set [5], the half-life of curcumin was 5.4 min. Also, the “Cur degraded (UV-Vis)” value in data set [6] (pH 6.8, after 5 h, EtOH dilution) is given as 7%; in [6] (pH 7.4, after 5 h, EtOH dilution), 16%; in data set [6] (pH 7.4 buffer, 24 h, EtOH dilution before measurement), 33%. For the same compound, in [7], the “dissolution” value is reported as “virtually no dissolution”. For the same compound, the figures for the “curcumin remained in solution” value in data set [8] (pH 6.8 buffer) and in data set [8] (pH 7.4 buffer) were around 44% and “around 40%”, respectively. Moreover, in data set [9], the Solubility (in general, the dissolved amount per volume that the medium holds) is 3 µg/mL (≈ 8.14 µM). The “Cur release concentration” value in data set [10] is given as “below the UV/Vis detection limit”.

Consider `O=c1oc2c(O)c(O)cc3c(=O)oc4c(O)c(O)cc1c4c23` [Ellagic Acid], for which the Solubility in data set [9] was 10 µg/mL (≈ 33.1 µM).

With `O=c1c(O)c(-c2ccc(O)c(O)c2)oc2cc(O)cc(O)c12` [Quercetin], in data set [9], the Solubility is 0.4 µg/mL (≈ 1.32 µM).

As for `Oc1ccc(C=Cc2cc(O)cc(O)c2)cc1` [Resveratrol], in [9], the Solubility is below 0.1 µg/mL.

As to `COC1=CC(=O)C[C@@H](C)[C@]12Oc1c(Cl)c(OC)cc(OC)c1C2=O` [griseofulvin], the Solubility in “physchem” (solubility of crystalline griseofulvin) was 12 µg/mL (≈ 34 µM); in the data set “physchem” (solubility of griseofulvin in the polymer matrix), at most 30000 µg/mL.
